# Laboratory results published in US4740501A (priority 1985, dated 1988).
# Key:
# [1] = test system: MJY-alpha mammary tumor cell layers; test: Morphology of treated cell layers (May-Grunwald-Giemsa); assay type: cell-based; conditions: 5 and 10 ug/ml for 15 to 60 minutes
# Protocol: Confluent MJY-alpha mammery tumor cell layers were treated with […] or diluent for 15 or 60 minutes, washed, and then incubated in growth medium. Representative cell layers were fixed and stained with May-Grunwald-Giemsastain from one (1) to seven (7) days after treatment as specified. Hemicysts or domes which are usually observed in short-term cultures of murine, MMTV-induced mammary tumors are not present in MJY-alpha cultures (FIG. 12a and b). […] Cellular pseudopodia were withdrawn and the cytoplasm appeared condensed around the nuclei (FIG. 12c and d). The most striking feature of exposure to high concentrations of PTT.119 was the ruffling of the plasma membrane and the formation of vesicles and blebs. […] This alteration was closely followed by visible increases in the cytosol volume or rarefaction of the cytoplasm (FIG. 12f). The degree of further pathological alterations of MJY-alpha mammary tumor cells was dependent on the dosage of PTT.119 and included lobulation and fragmentation of the nuclei, and the formation of multinuclear cells (FIG. 12f and h). […] Chromosomal condensation was not inhibited in multinucleated cells or in cells with highly lobulated or fragmented nuclei (FIG. 12h).
# L1210S = test: cells; assay type: cell-based
# B-16 melanoma cells = test: Tumor cell survival after pulse treatment; assay type: cell-based, Mouse; conditions: for Percent Tumor Cell Survival: viability 24 hr later
# Protocol: (§1) MJY-alpha mammary tumor cell layers were initiated at 2×10^5 cells/2 cm^2 well (Nuncion Multidish 4, Vangard International, Neptune, NJ) using cells spontaneously released into the medium from confluent 6-8 day old cell layers. B-16 melanoma cells obtained from 4-day-old cell confluent cultures by trypsinization with STV were plated at 2.2×10^5 cells/cm^2 well. These seeding densities yielded lightly confluent layers (2.3-2.6×10^5 cell/cm^2). following treatment the layers were rinsed twice and reincubated with growth media: media were changed daily until the cultures were terminated.
# (§2) Survival of tumor cell layers or suspensions was ascertained using 0.5% trypan blue in 0.1M phosphate-buffered saline, pH 7.25. Cell layers were released from the Multidish-4 wells with 0.5 ml STV, diluted 2 to 10 fold with the vital strain; tumor cells in suspension cultures were directly mixed 1:1 with the trypan blue dye. Tumor cells were enumerated using a haemocytometer; all 10 fields were counted for every sample. Percent viable cells was determined by direct comparison of the numbers of cells excluding trypan blue in treated cultures to those in untreated or diluent-treated parallel cultures. There were no significant differences in the viability of cells treated with diluent when compared to untreated cells.
# (§3) To delineate the minimum concentration and duration of the tripeptide compound exposure to induce cytolysis, MJY-alpha and B-16 melanoma cell layers and L-1210 leukemia cell suspensions were exposed to 0.5 to 50 ug of the tripeptide compound per ml of solvent for 0.25 to 4 hours. The tripeptide compound was then removed and the cells washed and reincubated in media growth. Tumor cell viability was determined 24 hrs after pulse tripeptide compound exposure. Cell survival of all three tumor cell lines was reduced by an exposure period of as short as 15 min (Table 4). The degree of cytolysis increased with extension of the treatment periods from 15 min to 4 hrs, although the decreases in cell survival were not proportional to the duration of the exposure. […] Comparison of the data in Tables 2 and 4 reveal that cells exposed to the tripeptide compound for one hour were irreversibly damaged when assayed a day later despite their apparent viability immediately after treatment.
# (§4) The reversibility of the cancericidal activity of the tripeptide compounds on L-1210 leukemia, MJY-alpha mammary tumor and B-16 melanoma cells was also monitored in the nonhostile tissue culture environment. Cell suspensions of these tumor models were treated with tripeptide for 15 to 240 min, washed and either inoculated into mice or maintained as suspension (L-1210) or monolayer cultures (MJY-alpha and B-16). Reductions in tumor cells survival were negligible (0-6%) in all three tumor systems at initiation of in vitro cultures following treatment with 50 ug tripeptide/ml for as long as 4 hrs. However, significant decreases in cellular viabilities of L-1210 leukemia (FIG. 9), MJY-alpha mammary tumor (FIG. 10) and B-16 melanoma (FIG. 11) tumor cells were observed 24 hr following tripeptide exposure and for the next 6 days.
# [2] = test system: MJY-alpha mammary tumor cells; test: Tumor cell survival after pulse treatment; assay type: cell-based, Mouse; conditions: for Percent Tumor Cell Survival: viability 24 hr later
# Protocol: as §1, §2, §3, §4
# [3] = 50 ug/ml for as long as 4 hrs (all three tumor systems)
smiles,measurement,setting,value
"CCOC(=O)[C@H](CCSC)NC(=O)[C@H](Cc1cccc(N(CCCl)CCCl)c1)NC(=O)[C@@H](N)Cc1ccc(F)cc1.Cl [PTT.119, 3-(p-fluorophenyl)-L-alanyl-3-[m-bis(2-chloroethyl)aminophenyl]-L-alanyl-L-methionine ethyl ester hydrochloride]",appearance of cell layers,[1],appeared unchanged
same,IC50,"L1210S; 24 h, read-out: T.C.D.50",2380 nM
same,T.C.D.100,"L1210S; L1210S, 24 hours exposure",7.5 µM
same,Percent Tumor Cell Survival,"B-16 melanoma cells; 5 ug/ml, pulse 1 hr",88%
same,Percent Tumor Cell Survival,"B-16 melanoma cells; 5 ug/ml, pulse 2 hr",66%
same,Percent Tumor Cell Survival,"B-16 melanoma cells; 5 ug/ml, pulse 4 hr",79%
same,Percent Tumor Cell Survival,"B-16 melanoma cells; 5 ug/ml, pulse .5 hr",93%
same,Percent Tumor Cell Survival,"B-16 melanoma cells; 10 ug/ml, pulse 1 hr",68%
same,Percent Tumor Cell Survival,"B-16 melanoma cells; 10 ug/ml, pulse 2 hr",73%
same,Percent Tumor Cell Survival,"B-16 melanoma cells; 10 ug/ml, pulse 4 hr",63%
same,Percent Tumor Cell Survival,"B-16 melanoma cells; 10 ug/ml, pulse .5 hr",75%
same,Percent Tumor Cell Survival,"B-16 melanoma cells; 25 ug/ml, pulse 1 hr",60%
same,Percent Tumor Cell Survival,"B-16 melanoma cells; 25 ug/ml, pulse 2 hr",56%
same,Percent Tumor Cell Survival,"B-16 melanoma cells; 25 ug/ml, pulse 4 hr",52%
same,Percent Tumor Cell Survival,"B-16 melanoma cells; 25 ug/ml, pulse .25 hr",82%
same,Percent Tumor Cell Survival,"B-16 melanoma cells; 25 ug/ml, pulse .5 hr",67%
same,reductions in tumor cell survival at initiation of in vitro cultures,B-16 melanoma cells; [3],0-6%
same,Percent Tumor Cell Survival,"B-16 melanoma cells; 50 ug/ml, pulse 1 hr",48%
same,Percent Tumor Cell Survival,"B-16 melanoma cells; 50 ug/ml, pulse .25 hr",65%
same,Percent Tumor Cell Survival,"B-16 melanoma cells; 50 ug/ml, pulse .5 hr",62%
same,Percent Tumor Cell Survival,"[2]; 5 ug/ml, pulse 1 hr",89%
same,Percent Tumor Cell Survival,"[2]; 5 ug/ml, pulse 2 hr",77%
same,Percent Tumor Cell Survival,"[2]; 5 ug/ml, pulse 4 hr",76%
same,Percent Tumor Cell Survival,"[2]; 5 ug/ml, pulse .5 hr",94%
same,Percent Tumor Cell Survival,"[2]; 10 ug/ml, pulse 1 hr",70%
same,Percent Tumor Cell Survival,"[2]; 10 ug/ml, pulse 2 hr",64%
same,Percent Tumor Cell Survival,"[2]; 10 ug/ml, pulse 4 hr",48%
same,Percent Tumor Cell Survival,"[2]; 10 ug/ml, pulse .25 hr",68%
same,Percent Tumor Cell Survival,"[2]; 10 ug/ml, pulse .5 hr",67%
same,Percent Tumor Cell Survival,"[2]; 25 ug/ml, pulse 1 hr",51%
same,Percent Tumor Cell Survival,"[2]; 25 ug/ml, pulse 2 hr",46%
same,Percent Tumor Cell Survival,"[2]; 25 ug/ml, pulse 4 hr",44%
same,Percent Tumor Cell Survival,"[2]; 25 ug/ml, pulse .25 hr",61%
same,Percent Tumor Cell Survival,"[2]; 25 ug/ml, pulse .5 hr",37%
same,reductions in tumor cell survival at initiation of in vitro cultures,[2]; [3],0-6%
same,Percent Tumor Cell Survival,"[2]; 50 ug/ml, pulse 1 hr",41%
same,Percent Tumor Cell Survival,"[2]; 50 ug/ml, pulse .25 hr",45%
same,Percent Tumor Cell Survival,"[2]; 50 ug/ml, pulse .5 hr",32%
